What was measured:
[1] = target: T1, human SVCT1 (Homo sapiens, UniProt Q9UHI7); experiment: L-[14C]ascorbic acid radiotracer uptake in Xenopus oocytes expressing human SVCT1; format: cell-based
T1 construct: expressed in transfected cells; host or cells: Xenopus laevis oocytes injected with cRNA (vector pTLN2)
Description: Functional characterization in Xenopus oocytes—SVCT1 and SVCT2 cDNAs were subcloned into the pTLN2 vector (to improve functional expression in oocytes) and used for cRNA synthesis in vitro using the MEGAscript kit and T7 RNA polymerase (from Ambion). Oocytes were isolated from Xenopus laevis, treated with collagenase A and maintained at 18° C. in modified Barths' medium. Oocytes were injected with 15 ng SVCT1 or SVCT2 cRNA or water only. The radiotracer uptake and voltage-clamp experiments described below were conducted 2-5 days post-injection in standard medium of composition 100 mM NaCl, 2 mM KCl, 1 mM CaCl2, 1 mM MgCl2, and 10 mM HEPES (buffered to pH 7.5 with Tris base). For low-Na^+ or Na^+-free media, NaCl was replaced with choline chloride. For pH-dependence experiments, Na^+ media were buffered to between pH 5.5 and pH 8.0 using 0-5 mM MES, 0-5 mM HEPES and 0-5 mM Tris base. L-Ascorbic acid-containing solutions were always freshly prepared and used immediately. […] Oocytes were solubilized with 10% SDS and carbon-14 content measured by liquid scintillation counting. A two-microelectrode voltage-clamp was used to measure currents associated with SVCT1 expressed in oocytes. Oocytes were superfused at 22° C. in standard Na^+ medium and clamped at −50 mV. Current was continuously monitored by sampling at 1 Hz. Test solutions were always washed out with substrate-free, Na^+-free medium at pH 7.5 for several minutes. Once again, saturation kinetics data were fit to a modified Hill equation in which I and Imax were replaced by uptake V and maximal velocity Vmax for analysis of radiotracer uptake data.

[2] = target: T2, human SVCT2 (Homo sapiens, UniProt Q9UGH3, A167T); experiment: L-[14C]ascorbic acid radiotracer uptake in Xenopus oocytes expressing human SVCT2; format: cell-based
T2 construct: expressed in transfected cells; host or cells: Xenopus laevis oocytes injected with cRNA (vector pTLN2)
T2 sequence (Q9UGH3 whole entry A167T): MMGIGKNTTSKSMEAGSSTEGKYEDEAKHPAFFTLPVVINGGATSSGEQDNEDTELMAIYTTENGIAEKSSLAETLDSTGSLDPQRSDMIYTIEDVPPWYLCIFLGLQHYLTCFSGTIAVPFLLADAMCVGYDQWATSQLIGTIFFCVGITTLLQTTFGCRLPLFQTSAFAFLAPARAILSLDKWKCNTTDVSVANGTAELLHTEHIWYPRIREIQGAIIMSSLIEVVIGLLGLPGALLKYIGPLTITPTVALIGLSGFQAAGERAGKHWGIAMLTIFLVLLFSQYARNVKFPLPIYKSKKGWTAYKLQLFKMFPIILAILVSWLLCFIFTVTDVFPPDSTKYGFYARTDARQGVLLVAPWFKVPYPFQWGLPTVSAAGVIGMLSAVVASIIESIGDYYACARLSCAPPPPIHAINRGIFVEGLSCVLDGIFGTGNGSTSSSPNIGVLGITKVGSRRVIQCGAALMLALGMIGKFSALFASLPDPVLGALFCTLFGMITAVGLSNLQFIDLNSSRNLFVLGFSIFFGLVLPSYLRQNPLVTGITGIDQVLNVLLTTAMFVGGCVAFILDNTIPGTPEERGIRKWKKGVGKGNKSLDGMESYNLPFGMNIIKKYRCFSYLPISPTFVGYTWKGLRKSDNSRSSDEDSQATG
Description: Functional characterization in Xenopus oocytes—SVCT1 and SVCT2 cDNAs were subcloned into the pTLN2 vector (to improve functional expression in oocytes) and used for cRNA synthesis in vitro using the MEGAscript kit and T7 RNA polymerase (from Ambion). Oocytes were isolated from Xenopus laevis, treated with collagenase A and maintained at 18° C. in modified Barths' medium. Oocytes were injected with 15 ng SVCT1 or SVCT2 cRNA or water only. The radiotracer uptake and voltage-clamp experiments described below were conducted 2-5 days post-injection in standard medium of composition 100 mM NaCl, 2 mM KCl, 1 mM CaCl2, 1 mM MgCl2, and 10 mM HEPES (buffered to pH 7.5 with Tris base). For low-Na^+ or Na^+-free media, NaCl was replaced with choline chloride. For pH-dependence experiments, Na^+ media were buffered to between pH 5.5 and pH 8.0 using 0-5 mM MES, 0-5 mM HEPES and 0-5 mM Tris base. L-Ascorbic acid-containing solutions were always freshly prepared and used immediately. Radiotracer uptake was determined by incubating 8-12 oocytes for 30 min (within the time-course of linear uptake) in standard Na^+, low-Na^+ or Na^+-free media with 10-500 μM L-[1-^14C]ascorbic acid (final specific activity ≈0.3 GBq/mmol). Oocytes were solubilized with 10% SDS and carbon-14 content measured by liquid scintillation counting. A two-microelectrode voltage-clamp was used to measure currents associated with SVCT1 expressed in oocytes. Oocytes were superfused at 22° C. in standard Na^+ medium and clamped at −50 mV. Current was continuously monitored by sampling at 1 Hz. Test solutions were always washed out with substrate-free, Na^+-free medium at pH 7.5 for several minutes. Once again, saturation kinetics data were fit to a modified Hill equation in which I and Imax were replaced by uptake V and maximal velocity Vmax for analysis of radiotracer uptake data.

T1 sequence (Q9UHI7 whole entry): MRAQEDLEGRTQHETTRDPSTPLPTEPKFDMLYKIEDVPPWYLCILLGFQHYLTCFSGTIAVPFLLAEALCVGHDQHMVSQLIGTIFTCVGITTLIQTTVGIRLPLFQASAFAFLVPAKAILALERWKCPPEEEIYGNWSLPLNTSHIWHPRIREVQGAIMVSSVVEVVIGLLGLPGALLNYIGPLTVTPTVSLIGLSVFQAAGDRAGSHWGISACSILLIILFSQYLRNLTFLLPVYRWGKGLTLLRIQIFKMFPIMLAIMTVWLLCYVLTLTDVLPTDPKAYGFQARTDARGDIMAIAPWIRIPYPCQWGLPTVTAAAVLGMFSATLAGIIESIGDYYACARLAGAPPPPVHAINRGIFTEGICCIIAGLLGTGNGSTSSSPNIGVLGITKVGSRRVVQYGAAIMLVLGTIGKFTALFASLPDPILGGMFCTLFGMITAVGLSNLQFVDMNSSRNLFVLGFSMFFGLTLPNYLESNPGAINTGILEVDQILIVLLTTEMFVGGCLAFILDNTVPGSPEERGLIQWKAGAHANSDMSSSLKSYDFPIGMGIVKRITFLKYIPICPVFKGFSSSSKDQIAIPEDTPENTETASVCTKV

stimulation of uptake compared with water-injected control oocytes ([1]; 500 μM L-[14C]ascorbic acid): 200 fold | uptake of L-[14C]ascorbic acid ([1]; 500 μM L-[14C]ascorbic acid): 15.5±1.2 pmol/min per oocyte | Hill coefficient (nH) ([1]; radiotracer uptake): ~1 | half-maximal concentration (K0.5) of uptake ([1]; radiotracer uptake, Michaelis-Menten-type saturation): ≈ 90 μM | stimulation of uptake compared with control oocytes [2]: 15 fold | uptake of L-[14C]ascorbic acid [2]: 1.2±0.1 pmol/min per oocyte | K0.5 of L-[14C]ascorbic acid transport ([2]; radiotracer uptake, FIG. 10): 65 µM | inhibition of the uptake of 100 μM L-[14C]ascorbic acid (in words) ([2]; saturating concentration): inhibited
Compound: O=C1O[C@H]([C@@H](O)CO)C(O)=C1O [L-ascorbic acid]
